In the supplement of paper PMC6411743:

Legend:
guanosine triphosphate = compound: Nc1nc2c(ncn2[C@@H]2O[C@H](COP(=O)(O)OP(=O)(O)OP(=O)(O)O)[C@@H](O)[C@H]2O)c(=O)[nH]1 [guanosine triphosphate]; assay: pEC50 of GTP-induced change in protein thermal stability (2D-TPP)
In short: (§1)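 In three independent experiments, Jurkat crude lysate received five concentrations including vehicle for 10 min at room temperature before a 3 min heating step at 12 temperatures (42–63.9 °C). NP40 and benzonase were then added for 60 min at 4 °C, and soluble protein after ultracentrifugation was read out by TMT LC-MS/MS as median-normalised fold changes against vehicle at each temperature. Dose-response fits per replicate over adjacent temperature pairs yielded pEC50, with hits called by permutation-based false discovery rate control.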

adenosine triphosphate = compound: Nc1ncnc2c1ncn2[C@@H]1O[C@H](COP(=O)(O)OP(=O)(O)OP(=O)(O)O)[C@@H](O)[C@H]1O [adenosine triphosphate]; assay: pEC50 of ATP-induced change in protein thermal stability (2D-TPP)
In short: as §1
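Wherever pEC50 of ATP-induced change in protein thermal stability (2D-TPP) is given: lysate dosed with Na-ATP at 0 0.005 0.05 0.5 and 2 mM.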

UniProt P33991, sequence (P33991 whole entry): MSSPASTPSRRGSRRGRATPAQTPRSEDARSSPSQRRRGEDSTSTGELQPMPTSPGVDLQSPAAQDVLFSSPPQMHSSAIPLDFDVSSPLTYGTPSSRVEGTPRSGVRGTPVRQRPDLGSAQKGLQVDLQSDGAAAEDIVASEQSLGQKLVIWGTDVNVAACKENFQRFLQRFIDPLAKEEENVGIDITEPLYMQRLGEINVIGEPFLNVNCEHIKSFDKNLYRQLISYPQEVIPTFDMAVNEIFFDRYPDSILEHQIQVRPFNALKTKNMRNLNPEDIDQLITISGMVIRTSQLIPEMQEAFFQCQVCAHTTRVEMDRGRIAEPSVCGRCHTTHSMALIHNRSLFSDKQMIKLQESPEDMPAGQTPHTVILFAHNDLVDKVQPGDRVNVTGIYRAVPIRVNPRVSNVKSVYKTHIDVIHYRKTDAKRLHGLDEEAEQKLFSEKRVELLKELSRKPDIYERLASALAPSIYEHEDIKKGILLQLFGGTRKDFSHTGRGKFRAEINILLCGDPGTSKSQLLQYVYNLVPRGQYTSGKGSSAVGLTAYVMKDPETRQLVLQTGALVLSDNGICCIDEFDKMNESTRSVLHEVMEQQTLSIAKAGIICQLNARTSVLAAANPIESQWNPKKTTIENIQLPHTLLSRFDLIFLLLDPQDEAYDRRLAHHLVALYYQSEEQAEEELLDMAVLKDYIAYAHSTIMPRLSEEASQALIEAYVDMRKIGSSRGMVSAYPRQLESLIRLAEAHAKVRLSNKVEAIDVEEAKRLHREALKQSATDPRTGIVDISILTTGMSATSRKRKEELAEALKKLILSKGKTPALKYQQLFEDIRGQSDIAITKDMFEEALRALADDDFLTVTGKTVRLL
UniProt Q9NSE4, sequence (Q9NSE4 whole entry): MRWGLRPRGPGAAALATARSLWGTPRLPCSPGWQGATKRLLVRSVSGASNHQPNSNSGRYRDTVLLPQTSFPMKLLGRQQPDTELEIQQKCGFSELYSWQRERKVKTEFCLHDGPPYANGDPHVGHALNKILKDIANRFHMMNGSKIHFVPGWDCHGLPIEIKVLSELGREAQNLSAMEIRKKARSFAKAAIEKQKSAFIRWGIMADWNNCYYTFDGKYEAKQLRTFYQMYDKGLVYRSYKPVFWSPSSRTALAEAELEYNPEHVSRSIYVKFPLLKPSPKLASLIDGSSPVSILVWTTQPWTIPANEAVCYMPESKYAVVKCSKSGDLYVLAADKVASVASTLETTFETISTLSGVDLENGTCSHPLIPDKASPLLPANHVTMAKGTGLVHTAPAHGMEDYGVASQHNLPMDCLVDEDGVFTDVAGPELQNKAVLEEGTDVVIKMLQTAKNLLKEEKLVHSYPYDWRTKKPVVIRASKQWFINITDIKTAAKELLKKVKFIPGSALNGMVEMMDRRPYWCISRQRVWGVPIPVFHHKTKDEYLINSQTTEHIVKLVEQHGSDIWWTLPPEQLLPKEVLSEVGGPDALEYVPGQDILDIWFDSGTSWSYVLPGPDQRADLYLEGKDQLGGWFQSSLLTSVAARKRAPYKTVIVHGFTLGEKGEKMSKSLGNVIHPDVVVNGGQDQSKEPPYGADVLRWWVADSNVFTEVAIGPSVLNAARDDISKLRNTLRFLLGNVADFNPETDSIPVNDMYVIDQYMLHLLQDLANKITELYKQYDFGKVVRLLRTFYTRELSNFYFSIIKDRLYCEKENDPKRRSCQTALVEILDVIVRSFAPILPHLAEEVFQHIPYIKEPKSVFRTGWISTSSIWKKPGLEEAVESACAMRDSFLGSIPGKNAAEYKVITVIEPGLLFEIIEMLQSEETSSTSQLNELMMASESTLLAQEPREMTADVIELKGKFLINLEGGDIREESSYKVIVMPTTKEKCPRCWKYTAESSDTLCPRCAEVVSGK
UniProt P49914, sequence (P49914 whole entry): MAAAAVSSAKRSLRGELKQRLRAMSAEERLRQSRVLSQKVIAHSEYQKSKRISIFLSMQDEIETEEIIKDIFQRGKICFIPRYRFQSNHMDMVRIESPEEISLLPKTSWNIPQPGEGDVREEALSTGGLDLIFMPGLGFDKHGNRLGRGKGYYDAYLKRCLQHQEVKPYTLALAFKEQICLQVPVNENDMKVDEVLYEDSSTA
UniProt Q8NE71, sequence (Q8NE71 whole entry): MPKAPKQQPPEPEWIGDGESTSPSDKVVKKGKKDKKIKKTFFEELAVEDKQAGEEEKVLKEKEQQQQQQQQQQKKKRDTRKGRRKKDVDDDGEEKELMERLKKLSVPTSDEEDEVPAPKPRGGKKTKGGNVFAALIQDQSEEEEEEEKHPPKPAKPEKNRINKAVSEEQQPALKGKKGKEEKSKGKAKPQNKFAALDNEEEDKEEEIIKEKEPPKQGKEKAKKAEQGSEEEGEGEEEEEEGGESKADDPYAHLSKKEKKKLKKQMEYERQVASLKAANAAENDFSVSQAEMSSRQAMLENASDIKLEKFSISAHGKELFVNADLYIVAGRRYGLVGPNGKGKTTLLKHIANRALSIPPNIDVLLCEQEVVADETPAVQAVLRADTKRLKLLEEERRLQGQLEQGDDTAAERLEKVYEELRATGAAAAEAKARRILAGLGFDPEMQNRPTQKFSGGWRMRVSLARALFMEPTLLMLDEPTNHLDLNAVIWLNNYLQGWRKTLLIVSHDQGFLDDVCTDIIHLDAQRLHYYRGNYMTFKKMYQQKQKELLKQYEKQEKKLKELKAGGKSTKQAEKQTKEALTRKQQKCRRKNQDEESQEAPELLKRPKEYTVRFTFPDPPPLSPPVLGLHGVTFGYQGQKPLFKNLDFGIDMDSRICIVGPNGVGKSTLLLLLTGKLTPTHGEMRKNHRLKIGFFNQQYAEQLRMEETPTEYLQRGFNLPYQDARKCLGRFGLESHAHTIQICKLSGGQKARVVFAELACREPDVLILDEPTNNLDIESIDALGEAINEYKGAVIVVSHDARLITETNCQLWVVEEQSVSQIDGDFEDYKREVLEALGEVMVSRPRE
UniProt P51570, sequence (P51570 whole entry): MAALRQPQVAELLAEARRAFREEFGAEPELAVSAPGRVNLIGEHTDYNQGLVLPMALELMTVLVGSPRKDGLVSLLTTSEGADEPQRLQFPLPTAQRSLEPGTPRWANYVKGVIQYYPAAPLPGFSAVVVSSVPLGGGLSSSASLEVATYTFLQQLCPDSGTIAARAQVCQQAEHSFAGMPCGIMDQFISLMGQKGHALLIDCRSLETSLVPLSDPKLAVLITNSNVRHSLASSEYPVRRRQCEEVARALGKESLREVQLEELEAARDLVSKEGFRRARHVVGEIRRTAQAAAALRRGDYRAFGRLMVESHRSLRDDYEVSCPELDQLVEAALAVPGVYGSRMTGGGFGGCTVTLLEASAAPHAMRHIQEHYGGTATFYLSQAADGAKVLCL
UniProt P23919, sequence (P23919 whole entry): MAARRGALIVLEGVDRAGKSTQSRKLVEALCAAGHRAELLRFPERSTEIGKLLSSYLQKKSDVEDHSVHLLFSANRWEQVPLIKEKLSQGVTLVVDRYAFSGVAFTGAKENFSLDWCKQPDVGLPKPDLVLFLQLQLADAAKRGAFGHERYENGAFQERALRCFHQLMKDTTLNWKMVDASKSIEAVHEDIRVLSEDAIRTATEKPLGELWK
UniProt Q04759, sequence (Q04759 whole entry, looked up): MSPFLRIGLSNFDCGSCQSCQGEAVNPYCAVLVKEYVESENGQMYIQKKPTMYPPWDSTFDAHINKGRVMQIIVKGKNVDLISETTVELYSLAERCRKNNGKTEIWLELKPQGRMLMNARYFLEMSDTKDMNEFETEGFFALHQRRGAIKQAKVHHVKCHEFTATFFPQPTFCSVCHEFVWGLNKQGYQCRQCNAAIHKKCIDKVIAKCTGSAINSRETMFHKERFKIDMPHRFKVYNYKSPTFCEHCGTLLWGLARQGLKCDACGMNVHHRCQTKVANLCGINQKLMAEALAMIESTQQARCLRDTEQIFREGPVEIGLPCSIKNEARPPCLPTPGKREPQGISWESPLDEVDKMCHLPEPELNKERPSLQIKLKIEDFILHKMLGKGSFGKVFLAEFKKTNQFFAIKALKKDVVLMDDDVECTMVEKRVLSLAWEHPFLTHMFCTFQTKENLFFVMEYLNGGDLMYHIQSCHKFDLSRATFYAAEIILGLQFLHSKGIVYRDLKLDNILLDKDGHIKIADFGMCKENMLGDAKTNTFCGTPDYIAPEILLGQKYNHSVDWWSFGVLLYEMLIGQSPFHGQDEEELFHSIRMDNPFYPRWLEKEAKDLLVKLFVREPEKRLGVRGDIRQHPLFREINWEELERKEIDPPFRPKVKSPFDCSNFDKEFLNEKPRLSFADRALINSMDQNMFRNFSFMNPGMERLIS
UniProt Q01130, sequence (Q01130 whole entry): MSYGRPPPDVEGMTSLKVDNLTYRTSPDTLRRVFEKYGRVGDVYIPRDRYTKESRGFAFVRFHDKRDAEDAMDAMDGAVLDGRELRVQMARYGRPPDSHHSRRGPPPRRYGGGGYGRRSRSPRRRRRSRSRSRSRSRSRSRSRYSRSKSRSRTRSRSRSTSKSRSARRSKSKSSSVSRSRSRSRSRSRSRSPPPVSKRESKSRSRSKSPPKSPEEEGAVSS
UniProt Q9NTK5, sequence (Q9NTK5 whole entry, looked up): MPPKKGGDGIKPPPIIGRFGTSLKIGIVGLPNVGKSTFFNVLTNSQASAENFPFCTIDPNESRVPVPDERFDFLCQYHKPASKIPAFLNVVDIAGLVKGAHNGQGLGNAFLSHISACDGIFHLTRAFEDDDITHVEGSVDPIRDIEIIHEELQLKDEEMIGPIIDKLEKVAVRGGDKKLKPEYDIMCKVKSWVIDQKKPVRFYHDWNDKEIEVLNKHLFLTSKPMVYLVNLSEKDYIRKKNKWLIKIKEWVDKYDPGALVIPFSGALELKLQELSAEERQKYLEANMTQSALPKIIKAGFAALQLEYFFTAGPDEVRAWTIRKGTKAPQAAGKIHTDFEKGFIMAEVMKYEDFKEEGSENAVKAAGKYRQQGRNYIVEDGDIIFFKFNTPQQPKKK

Row | pEC50 (guanosine triphosphate) | pEC50 (adenosine triphosphate) | Target
1 | 4.03 | 3.52 | RAB39B (effect direction: stabilized) (UniProt Q96DA2)
2 | 3.56 | 3.23 | UniProt Q01130 (effect direction: stabilized)
3 | 3.72 | 3.98 | PEX1 (effect direction: stabilized) (UniProt O43933)
4 | 4.06 | 4.02 | GALK1 (effect direction: stabilized) (UniProt P51570)
5 | 4.08 | 4.08 | UniProt O00442 (effect direction: stabilized)
6 | 3.9 | 4 | UniProt P52564 (effect direction: stabilized)
7 | 3.9 | 3.28 | UCK2 (effect direction: stabilized) (UniProt Q9BZX2)
8 | 4.06 | 4.17 | DTYMK (effect direction: stabilized) (UniProt P23919)
9 | 3.44 | 4.07 | PAK4 (effect direction: stabilized) (UniProt O96013)
10 | 3.62 | 4.53 | CCT3 (effect direction: stabilized) (UniProt P49368)
11 | 3.72 | 3.85 | PRKAR1A (effect direction: stabilized) (UniProt P10644)
12 | 3.67 | 4.34 | RUVBL1 (effect direction: stabilized) (UniProt Q9Y265)
13 | 3.86 | 3.88 | MCM4 (effect direction: stabilized) (UniProt P33991)
14 | 3.79 | 4.18 | UBA1 (effect direction: stabilized) (UniProt P22314)
15 | 3.96 | 4.2 | ABCF1 (effect direction: stabilized) (UniProt Q8NE71)
16 | 3.72 | 3.82 | UniProt P17612 (effect direction: stabilized)

Row | pEC50 (guanosine triphosphate) | pEC50 (adenosine triphosphate) | Target
17 | 3.75 | 3.33 | MTHFS (effect direction: stabilized) (UniProt P49914)
18 | 3.87 | 3.81 | OLA1 (effect direction: stabilized) (UniProt Q9NTK5)
19 | 3.71 | 4.18 | IARS2 (effect direction: stabilized) (UniProt Q9NSE4)
20 | 4.31 | 3.33 | ATP2A2 (effect direction: stabilized) (UniProt P16615)
21 | 3.81 | 4.24 | GIMAP6 (effect direction: stabilized) (UniProt Q6P9H5)
22 | 4.52 | 3.45 | RAB4A (effect direction: stabilized) (UniProt P20338)
23 | 4.45 | 4.15 | RHOA (effect direction: stabilized) (UniProt P61586)
24 | 3.56 | 4.34 | CCT2 (effect direction: stabilized) (UniProt P78371)
25 | 4.45 | 3.28 | RHEB (effect direction: stabilized) (UniProt Q15382)
26 | 3.93 | 4.25 | ACTR3 (effect direction: stabilized) (UniProt P61158)
27 | 3.82 | 3.49 | ABCB7 (effect direction: stabilized) (UniProt O75027)
28 | 3.79 | 3.27 | DBN1 (effect direction: destabilized) (UniProt Q16643)
29 | 3.72 | 3.3 | DGKA (effect direction: stabilized) (UniProt P23743)
30 | 4.08 | 4.19 | PRKCQ (effect direction: stabilized) (UniProt Q04759)
31 | 4.05 | 4.13 | UniProt O43776 (effect direction: stabilized)
32 | 4.67 | 3.74 | GTPBP3 (effect direction: stabilized) (UniProt Q969Y2)
